Patent US20030143282A1, “Adenosine A3 receptor agonist” (priority 2002, published 2003)

What was measured:
B16-F10 melanoma cells = experiment: Melanoma lung metastatic foci growth in mice inoculated with B16-F10 cells; type: in vivo, C57BL/6J mice; conditions: adenosine 268 μg/kg body weight, administered orally or intraperitoneally
Method: The B-16-F10 murine melanoma cell line was used in the in vitro and in vivo experiments. Cells were maintained in RPMI medium containing 10% FBS, penicillin and streptomycin. They were transferred twice weekly to a freshly prepared medium. To examine the effect of the different preparations on tumor cell growth, B16-F10 (2.5×10^5) melanoma cells were intravenously inoculated to C57BL/6J mice. Each group contained 20 mice and experiments were repeated at least 4 times. Mice were treated orally according to the following protocol starting one day after tumor inoculation: 1. Adenosine—268 μg/kg body weight 2. MCM 4AU twice daily. 3. MCM+ADA, 4AU twice daily. 4. Vehicle—twice daily. An additional group of mice was treated daily intraperitoneally with adenosine (268 μg/kg body weight). Mice were sacrificed after fifteen days, lungs removed and black metastatic foci were counted using a Dissecting Microscope.

[1] = Myeloprotective effect in mice treated with cyclophosphamide; type: in vivo; conditions: adenosine administered orally or intraperitoneally, after cyclophosphamide
Method: The myeloprotective effect of the various preparations were examined by injecting mice intraperitoneally with 50 mg/kg body weight of cyclophosphamide. Each group contained 10 mice and experiments were repeated at least 4 times. Adenosine, MCM (4 activity units) or MCM+ADA (4 activity units) were each orally administered 48 h and 72 h following the chemotherapy. After 120 h blood samples were withdrawn. The number of leukocytes and percent of neutrophils were evaluated.

B-16-F10 melanoma cells = experiment: [3H]-thymidine incorporation assay, tumor cell proliferation; type: cell-based, murine; conditions: B16-F10 cells; 0.1, 0.05 and 0.001 μM
Method: The B-16-F10 murine melanoma cell line was used in the in vitro and in vivo experiments. Cells were maintained in RPMI medium containing 10% FBS, penicillin and streptomycin. They were transferred twice weekly to a freshly prepared medium.
(§1) [^3H]-tymidine incorporation assay was used to evaluate cell growth. 1.5×10^4/ml B-16-F10 melanoma or 3×10^5/ml bone marrow cells were cultured in RPMI medium containing 10% FBS in 96 well microtiter plates. These cultures were incubated in the presence of MCM in a concentration of 50%. Since MCM was prepared in PBS, cultures containing tumor or bone marrow cells suspended in 50% PBS served as controls. During the last 18 hours of incubation, each well was pulsed with 1 μCi [^3H]-thymnidine. The cells were harvested and the [^3H]-thymnidine uptake was determined in an LKB liquid scintillation counter (LKB, Piscataway, N.J., USA).
(§2) Results were expressed as % of cell proliferation inhibition or stimulation, calculated according to the following formula: [formula]
where A represents the cell count of sample and B represents the cell count of the control. According to this calculation control values are 0% of inhibition or stimulation. […]
(§3) In this set of experiments, the question whether the effect of MCM+ADA on tumor or normal cells was mediated through A3AR was examined. […] [^3H]-thymidine uptake was determined as described above.

bone marrow cells = experiment: [3H]-thymidine incorporation assay, bone marrow cell proliferation; type: cell-based, C57BL/6J mice; conditions: 0.1, 0.05 and 0.001 μM
Method: Bone marrow cells were obtained from the femur of C57BL/6J mice. Cells were disaggregated by passing through a 25 G needle.
as §1, §2
where A represents the cell count of sample and B represents the cell count of the control. According to this calculation control values are 0% of inhibition or stimulation.
To eliminate adenosine from MCM preparations, adenosine deaminase (ADA) (Sigma, Chemical Co. St. Louis, Mo., USA) was added to the MCM for 1 hour. […]
as §3

## Nc1ncnc2c1ncn2[C@@H]1O[C@H](CO)[C@@H](O)[C@H]1O [Adenosine, adenosine]
B16-F10 melanoma cells
  inhibition of tumor growth: failed to inhibit tumor growth
[1]
  chemoprotective effect: failed to inhibit tumor growth or act as a chemoprotective agent

## O=C(Cc1ccccc1)Nc1nc2ccc(Cl)cc2c2nc(-c3ccco3)nn12 [MRS-1220, 9-chloro-2-(2-furanyl)-5-[(phenylacetyl)amino] [1,2,4,]-triazolo[1,5-c] quinazoline]
B-16-F10 melanoma cells
  effect of MRS-1220 by itself on proliferation: no effect
Bone marrow cells
  effect of MRS-1220 by itself on proliferation: no effect
